Measurements taken from patent publication US10881614B2, “Nicotinamide compositions and the therapeutic use thereof” (APeT Holding B.V., priority 2011, dated 2021).

Tests used:
[1] = test system: patients with epilepsy, behavioral and nutritional abnormalities; experiment: Clinical observations under oral nicotinamide therapy; type: in vivo, human
[2] = test system: subjects suspected to suffer from tryptophan malabsorption; details: 20 mg/kg/day in six doses, three subjects; cited from earlier work

NC(=O)c1cccnc1 [nicotinamide, pyridine-3-carboxamide]
indican in plasma and urine ([1]; nicotinamide therapy): normalization | behavioral, neurological and psychiatric abnormalities ([1]; oral nicotinamide): Remarkable improvement up to normalization | intestinal tryptophan absorption ([1]; oral nicotinamide): stimulates intestinal tryptophan absorption | clinical picture under nicotinamide therapy ([1]; patients with epilepsy, behavioral and nutritional abnormalities hardly improved by antiepileptic, antidepressant and other drugs): normalized in one or two months | effect on behavioral and psychiatric illnesses [2]: beneficial effect
